Structures can show the parent of a compound that is named as a salt.
These compounds were tested against T1, recombinant human Estrogen Receptor alpha ligand binding domain, residues 307-554 (ER alpha-LBD (GST)) (Homo sapiens, UniProt P03372) (assay: ERα binding assay (LanthaScreen TR-FRET competition)). Details: TR-FRET competition with Fluormone ES2 tracer, 4 hours at room temperature; single experiment or average of two or more.
T1 construct: made in house
T1 sequence (P03372 307-554): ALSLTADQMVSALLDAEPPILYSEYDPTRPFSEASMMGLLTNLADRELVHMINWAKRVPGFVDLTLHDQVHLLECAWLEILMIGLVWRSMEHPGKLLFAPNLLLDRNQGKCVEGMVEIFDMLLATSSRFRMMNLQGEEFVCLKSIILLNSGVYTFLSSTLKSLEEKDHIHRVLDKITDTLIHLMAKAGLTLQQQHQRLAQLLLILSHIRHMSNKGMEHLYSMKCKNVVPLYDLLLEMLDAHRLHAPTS
For CC[C@H](C)[C@H](N)C(=O)O[C@@H]1C[C@@H](C(=O)NCc2ccc(-c3scnc3C)cc2)N(C(=O)[C@@H](NC(=O)COCCOCCOCCOc2cc(F)c([C@@H]3c4[nH]c5ccccc5c4C[C@@H](C)N3CC(C)(C)F)c(F)c2)C(C)(C)C)C1 [Example 99, (3R,5S)-1-((S)-2-(2-(2-(2-(2-(3,5-Difluoro-4-((1R,3R)-2-(2-fluoro-2-methylpropyl)-3-methyl-2,3,4,9-tetrahydro-1H-pyrido[3,4-b]indol-1-yl)phenoxy)ethoxy)ethoxy)ethoxy)acetamido)-3,3-dimethylbutanoyl)-5-((4-(4-methylthiazol-5-yl)benzyl)carbamoyl)pyrrolidin-3-yl L-isoleucinate Formate], the IC50 was 1.2 nM. Work on Cc1ncsc1-c1ccc(CNC(=O)[C@@H]2C[C@@H](OC(=O)[C@H](C)NC(=O)[C@@H](N)C(C)C)CN2C(=O)[C@@H](NC(=O)COCCOCCOCCOc2cc(F)c([C@@H]3c4[nH]c5ccccc5c4C[C@@H](C)N3CC(C)(C)F)c(F)c2)C(C)(C)C)cc1 [Example 100, (3R,5S)-1-((S)-2-(2-(2-(2-(2-(3,5-Difluoro-4-((1R,3R)-2-(2-fluoro-2-methylpropyl)-3-methyl-2,3,4,9-tetrahydro-1H-pyrido[3,4-b]indol-1-yl)phenoxy)ethoxy)ethoxy)ethoxy)acetamido)-3,3-dimethylbutanoyl)-5-((4-(4-methylthiazol-5-yl)benzyl)carbamoyl)pyrrolidin-3-yl L-valyl-L-alaninate Formate] yielded an IC50 of 0.8 nM. Compound Cc1ncsc1-c1ccc(CNC(=O)[C@@H]2C[C@@H](O)CN2C(=O)[C@@H](NC(=O)COCCCCCOc2cc(F)c([C@@H]3c4[nH]c5ccccc5c4C[C@@H](C)N3CC(F)(F)F)c(F)c2)C(C)(C)C)cc1 [Example 96] has an IC50 of 0.6 nM. Compound Cc1ncsc1-c1ccc(CNC(=O)[C@@H]2C[C@@H](O)CN2C(=O)[C@@H](NC(=O)Cc2ccc(OCCOCCNC(=O)/C=C/c3cc(F)c([C@@H]4c5[nH]c6ccccc6c5C[C@@H](C)N4CC(C)(C)F)c(F)c3)cc2)C(C)(C)C)cc1 [Example 66, (2S,4R)-1-((S)-2-(2-(4-(2-(2-((E)-3-(3,5-difluoro-4-((1R,3R)-2-(2-fluoro-2-methylpropyl)-3-methyl-2,3,4,9-tetrahydro-1H-pyrido[3,4-b]indol-1-yl)phenyl)acrylamido)ethoxy)ethoxy)phenyl)acetamido)-3,3-dimethylbutanoyl)-4-hydroxy-N-(4-(4-methylthiazol-5-yl)benzyl)pyrrolidine-2-carboxamide, Trifluoroacetic Acid] has an IC50 of 1.2 nM. Compound Cc1ncsc1-c1ccc(CNC(=O)[C@@H]2C[C@@H](O)CN2C(=O)[C@@H](NC(=O)COCc2cccc(CCCOc3cc(F)c([C@@H]4c5[nH]c6ccccc6c5C[C@@H](C)N4CC(C)(C)F)c(F)c3)c2)C(C)(C)C)cc1 [Example 74, (2S,4R)-1-((S)-2-(2-((3-(3-(3,5-Difluoro-4-((1R,3R)-2-(2-fluoro-2-methylpropyl)-3-methyl-2,3,4,9-tetrahydro-1H-pyrido[3,4-b]indol-1-yl)phenoxy)propyl)benzyl)oxy)acetamido)-3,3-dimethylbutanoyl)-4-hydroxy-N-(4-(4-methylthiazol-5-yl)benzyl)pyrrolidine-2-carboxamide] has an IC50 of 0.8 nM.

Reference: US10519152B2, “Compounds and their use in treating cancer” (AstraZeneca AB, priority 2017, dated 2019)
